In the test the target is T1, recombinant human GST-SYK (Homo sapiens, UniProt P43405).
T1 construct: purchased Carna Biosciences 08-176
As to the kind of experiment: Homogeneous Time-Resolved Fluorescence (HTRF) assay for the recombinant human SYK enzyme. The test is classed as biochemical. The settings on record: recombinant human GST-SYK 5 pM, ATP 25 μM, 10-dose titration; read-out: rhSYK Activity (IC50). The procedure:
Homogeneous Time-Resolved Fluorescence (HTRF) Assay for the Recombinant Human SYK Enzyme:
A recombinant GST-hSYK fusion protein was used to measure potency of compounds to inhibit human SYK activity. The recombinant human GST-SYK (Carna Biosciences #08-176) (5 pM final concentration) was incubated with various concentrations of the inhibitor diluted in DMSO (0.1% final concentration) for 10 minutes at room temperature in 15 mM Tris-HCl (pH 7.5), 0.01% tween 20, 2 mM DTT in 384 well plate format. To initiate the reaction the biotinylated substrate peptide (250 nM final concentration) that contains the phosphorylation site for SYK was added with magnesium (5 mM final concentration) and ATP (25 μM final concentration). Final volume of the reaction was 10 μL. Phosphorylation of the peptide was allowed to proceed for 45′ at room temperature. To quench the reaction and detect the phosphorylated product, 2 nM of a Europium-atiti-phosphotyrosine antibody (Perkin Elmer #AD0161) and 70 nM SA-APC (Perkin-Elmer #CR130-100) were added together in 15 mM Tris pH 7.5, 40 mM EDTA, 0.01% tween 20. Final volume of the quenching solution was 10 μL. The resulting HTRF signal was measured after 30 minutes on a EnVision (Perkin-Elmer) reader using a time-resolved fluorescence protocol.
(In general: In TR-FRET formats the signal depends on donor and acceptor labels being close together.)
What is called IC50 is the concentration that inhibits the measured activity by half. Regarding `FC(F)(F)c1ccnc(Nc2cccc(-c3cnc(N4CCOCC4)s3)c2)n1` [Example 119], the IC50 was not above 100 nM. Consider `O=C(O)C1CCN(c2nc(-c3cccc(Nc4nccc(C(F)(F)F)n4)c3)cs2)CC1` [Example 229, 1-[4-(3-{[4-(trifluoromethyl)pyrimidin-2-yl]amino}phenyl)-1,3-thiazol-2-yl]piperidine-4-carboxylic acid], for which the IC50 is 100 to 1000 nM. As to `CNc1ncc(-c2cccc(Nc3nccc(C(F)(F)F)n3)c2)s1` [Example 21], the IC50 is not above 100 nM. With `COc1ccnc(Nc2cc(C)cc(-c3cnc(N4CCCNC(=O)C4)s3)c2)n1` [Example 205], the IC50 was not above 100 nM. In the case of `Cc1cc(Nc2nccc(C3CC3)n2)cc(-c2cnc(N3CCCNC(=O)C3)s2)c1` [Example 198, 4-(5-{3-[(4-cyclopropylpyrimidin-2-yl)amino]-5-methyphenyl}-1,3-thiazol-2-yl)-1,4-diazepan-2-one] it was not above 100 nM.

On to `OC1(c2ccccc2)CCN(c2ncc(-c3cccc(Nc4nccc(C(F)(F)F)n4)c3)s2)C1` (stereo not shown) [Example 159], for which the 50% inhibitory concentration (IC50) was in the range of 100 to 1000 nM.

Consider `C=Cc1ccnc(Nc2cc(C)cc(-c3cnc(N4CCCNC(=O)C4)s3)c2)n1` [Example 199, 4-(5-{3-[(4-ethenylpyrimidin-2-yl)amino]-5-methylphenyl}-1,3-thiazol-2-yl)-1,4-diazepan-2-one], for which the half-inhibitory concentration (IC50) is not above 100 nM. For the compound `Cc1ccnc(Nc2cccc(-c3csc(N4CCC(C(=O)O)CC4)n3)c2)n1` [Example 231, 1-(4-{3-[(4-methylpyrimidin-2-yl)amino]phenyl}-1,3-thiazol-2-yl)piperidine-4-carboxylic acid], the IC50 is 100 to 1000 nM. For `CC(C)(O)CNc1ncc(-c2cccc(Nc3nccc(C(F)(F)F)n3)c2)s1` [Example 29], the IC50 was not above 100 nM. As to `OCC1C2CN(c3ncc(-c4cccc(Nc5nccc(C(F)(F)F)n5)c4)s3)CC12` (stereo not shown) [Example 171], the IC50 is not above 100 nM.

Consider `FC(F)(F)c1ccnc(Nc2cccc(-c3cnc(NCc4cccc(-n5cccn5)c4)s3)c2)n1` [Example 76], for which the IC50 is not above 100 nM. In the case of `CCC(O)CNc1ncc(-c2cccc(Nc3nccc(C(F)(F)F)n3)c2)s1` (stereo not shown) [Example 9], the IC50 is not above 100 nM. In the case of `C=CCOC(=O)N1CCN(c2ncc(-c3cccc(Nc4nccc(C(F)(F)F)n4)c3)s2)C(CO)C1` (stereo not shown) [Example 126], the IC50 lay within 100 to 1000 nM. In the case of `OCC1CCCCN1c1ncc(-c2cccc(Nc3nccc(C(F)(F)F)n3)c2)s1` (stereo not shown) [Example 132] it was not above 100 nM.

On to `Cc1cc(Nc2nccc(C(F)(F)F)n2)cc(-c2cnc(NCCc3c[nH]cn3)s2)c1` [Example 93], for which the IC50 was not above 100 nM.

As to `Cc1cc(Nc2nccc(C(F)(F)F)n2)cc(-c2cnc(NCCc3c(C)n[nH]c3C)s2)c1` [Example 111], the IC50 is not above 100 nM. With `CC1C(=O)NCCN1c1ncc(-c2cccc(Nc3nccc(C(F)(F)F)n3)c2)s1` (stereo not shown) [Example 124], the IC50 was not above 100 nM. As for `Cc1cc(Nc2nccc([S+](C)[O-])n2)cc(-c2cnc(N3CCCNC(=O)C3)s2)c1` (stereo not shown) [Example 223, 4-[5-(3-methyl-5-{[4-(methylsulfinyl)pyrimidin-2-yl]amino}phenyl)-1,3-thiazol-2-yl]-1,4-diazepan-2-one], the IC50 was not above 100 nM.

Regarding `COc1nc(Nc2cc(C)cc(-c3cnc(N4CCCNC(=O)C4)s3)c2)ncc1Cl` [Example 210, 4-(5-{3-[(5-chloro-4-methoxypyrimidin-2-yl)amino]-5-methylphenyl}-1,3-thiazol-2-yl)-1,4-diazepan-2-one], the IC50 was not above 100 nM. Consider `OC1COCC1Nc1ncc(-c2cccc(Nc3nccc(C(F)(F)F)n3)c2)s1` (stereo not shown) [Example 12], for which the IC50 is not above 100 nM. `Cn1cncc1CNc1ncc(-c2cccc(Nc3nccc(C(F)(F)F)n3)c2)s1` [Example 22]: the IC50 was not above 100 nM. Take `CSCCNc1ncc(-c2cccc(Nc3nccc(C(F)(F)F)n3)c2)s1` [Example 44]: the IC50 is not above 100 nM. With `Cc1cc(Nc2nccc(OC3CCNCC3)n2)cc(-c2cnc(N3CCCNC(=O)C3)s2)c1` [Example 215, 4-[5-(3-methyl-5-{[4-(piperidin-4-yloxy)pyrimidin-2-yl]amino}phenyl)-1,3-thiazol-2-yl]-1,4-diazepan-2-one], the IC50 is not above 100 nM. On to `Cc1cc(Nc2nccc(C(F)(F)F)n2)cc(-c2cnc(NCc3cn(C)cn3)s2)c1` [Example 94], for which the IC50 was not above 100 nM. Turning to `Cc1cc(Nc2nccc(OCc3ccccc3)n2)cc(-c2cnc(N3CCCNC(=O)C3)s2)c1` [Example 208], the IC50 is not above 100 nM. Turning to `NC1CCN(c2ncc(-c3cccc(Nc4nccc(C(F)(F)F)n4)c3)s2)C1` (stereo not shown) [Example 162], the IC50 is not above 100 nM.

Take `CC1(O)CN(c2ncc(-c3cccc(Nc4nccc(C(F)(F)F)n4)c3)s2)C1` [Example 154]: the IC50 was not above 100 nM. `Cc1cc(Nc2nccc(C(F)(F)F)n2)cc(-c2sc(N3CCCNC(=O)C3)nc2Cl)c1` [Example 228, 4-[4-chloro-5-(3-methyl-5-{[4-(trifluoromethyl)pyrimidin-2-yl]amino}phenyl)-1,3-thiazol-2-yl]-1,4-diazepan-2-one]: the IC50 was not above 100 nM. Regarding `Cc1cc(Nc2nccc(C(F)(F)F)n2)cc(-c2cnc(N3CCC4CN(C)CC4C3)s2)c1` (stereo not shown) [Example 153], the IC50 was not above 100 nM. Consider `CSc1ccnc(Nc2cc(C)cc(-c3cnc(N4CCCNC(=O)C4)s3)c2)n1` [4-[5-(3-methyl-5-{[4-(methylsulfanyl)pyrimidin-2-yl]amino}phenyl)-1,3-thiazol-2-yl]-1,4-diazepan-2-one], for which the IC50 was not above 100 nM. Regarding `CCOCCNc1ncc(-c2cccc(Nc3nccc(C(F)(F)F)n3)c2)s1` [Example 34], the IC50 was not above 100 nM. As for `OCCNc1ncc(-c2cccc(Nc3nccc(C(F)(F)F)n3)c2)s1` [Example 2], the figure is not above 100 nM; as for `Cc1cc(Nc2nccc(C(F)(F)F)n2)cc(-c2cnc(N3CCCNC(=O)C3)s2)c1` [Example 226, 4-[5-(3-methyl-5-{[4-(trifluoromethyl)pyrimidin-2-yl]amino}phenyl)-1,3-thiazol-2-yl]-1,4-diazepan-2-one], not above 100 nM. In the case of `CC(=O)Nc1cc(Nc2nccc(C(F)(F)F)n2)cc(-c2cnc(N3CCCNC(=O)C3)s2)c1` [Example 184, N-(3-[2-(3-oxo-1,4-diazepan-1-yl)-1,3-thiazol-5-yl]-5-{[4-(trifluoromethyl)pyrimidin-2-yl]amino}phenyl)acetamide] it was not above 100 nM; in that of `OCC1CCN(c2ncc(-c3cccc(Nc4nccc(C(F)(F)F)n4)c3)s2)CC1` [Example 130], not above 100 nM. Turning to `Cc1cc(Nc2nccc(C(F)(F)F)n2)cc(-c2cnc(N3CCOCC3)s2)c1` [Example 122], the IC50 was not above 100 nM.

`Cc1cc(Nc2nccc(C(F)(F)F)n2)cc(-c2cnc(N3CCn4cncc4C3)s2)c1` [Example 174]: the concentration for half-maximal inhibition (IC50) was not above 100 nM. In the case of `OCCCCCCN(Cc1ccccc1)c1ncc(-c2cccc(Nc3nccc(C(F)(F)F)n3)c2)s1` [Example 26] it was 100 to 1000 nM; in that of `COCC(O)CNc1ncc(-c2cccc(Nc3nccc(C(F)(F)F)n3)c2)s1` (stereo not shown) [Example 50], not above 100 nM; in that of `Cc1cc(Nc2nccc(O[C@@H]3CCNC3)n2)cc(-c2cnc(N3CCCNC(=O)C3)s2)c1` [Example 212, 4-{5-[3-methyl-5-({4-[(3R)-pyrrolidin-3-yloxy]pyrimidin-2-yl}amino)phenyl]-1,3-thiazol-2-yl}-1,4-diazepan-2-one], not above 100 nM.
